What all share (type): in vivo, human
The test system of one assay is ESR. The experiment in a line: RA study: ESR versus baseline. From the text:
As used herein, “ESR” refers to “Erythrocyte Sedimentation Rate”, which is a test that indirectly measures the degree of inflammation in the body by measuring how quickly red blood cells settle at the bottom of a test tube containing a sample of a patient's blood. See www.healthline.com/health/esr (last visited Aug. 7, 2018). A positive ESR may be determined using the Westergren method according to specifications by the International Council for Standardization in Haematology, or by automated methods (e.g., TEST1 from Alifax). See https://icsh(dot)org/guidelines; Lou, J. M. et al., Int. Jnl. Lab. Hem. 2011, 33:125-132.
Disease Activity Score 28. The DAS 28-4 (CRP) and the DAS 28-4 (ESR) are calculated as follows. Assessments: (i) Tender joint count of 28 joints (TJC28), square-root transformed; (ii) Swollen joint count of 28 joints (SJC28), square-root transformed; (iii) Acute-phase reactant (erythrocyte sedimentation rate [ESR mm/hr] or high sensitivity C-reactive protein [hsCRP mg/L]), log transformed; (iv) Patient's global assessment of disease activity on visual analog scale (0-100 mm).

Assay [1] has as its system IgG anti-FcERI autoantibodies. Kind of assay: CSU study: serum IgG anti-FcERI autoantibodies (immunoassay). The conditions noted are these: Cohorts 1 and 2, serum, week 0 to 8. As to the method: Some patient samples were also evaluated specifically for IgG anti-FcERI autoantibodies, and the level of those autoantibodies over time in fenebrutinib-administered patients compared to placebo-administered patients is shown in FIG. 37. Serum samples were collected at 0 and 8 weeks from patients receiving fenebrutinib (left) versus placebo (right), with samples sizes for each group shown. Prior to direct FcERI immunoassay, samples were split and pre-incubated with equimolar concentrations of rhFcERI or an unrelated control protein. Reactivity levels were determined relative to a mouse monoclonal antibody standard. IgG anti-FcERI was defined as the difference in reactivity between the split samples, and is shown in relative units (RU). The bold lines without markers represent the average of patients who were anti-FcERI positive at baseline. The dotted line represents the mean+3 standard deviations of healthy volunteer samples. Some sample lines for IgG anti-FcERI negative patients overlap at the lower end of the assay range. […] Without wishing to be bound by any theory, it is thought that anti-FcERI may be a driver of positive CU index test results, and are associated with refractory CSU.

A further assay deals with IL-6. The experiment in a line: RA study biomarker: IL-6 (immunoassay). As to the method:
Biomarkers were evaluated in serum or plasma samples at baseline and weeks 1, 4, and 12 in patients with available samples (cohort 1: n=438; cohort 2: n=86). The biomarkers evaluated in this assessment were chemokine [C-C motif] ligand 4 (CCL4), IL-6, and TNF-like cytokine 1A (TL1A). Total IgM, IgG, rheumatoid factor IgM autoantibody (RF), CCL4, TL1A, IL-6, and anti-CCP autoantibody (ACPA IgG) levels were analyzed with immunoassays. CD19^+ B cells and CD3^+ T cells were measured by flow cytometry. The proportion of patients achieving an ACR50 response at week 12 and the change in DAS28 score by week 12 were assessed relative to seropositivity (RF and/or ACPA positive at baseline) or baseline levels of RF in both cohorts. To select which biomarkers to evaluate in this trial, BTK-dependent myeloid biomarkers were identified using peripheral blood CD14^+ monocytes stimulated with immune-complexes in the presence or absence of a BTK inhibitor. In brief, the expression levels of genes in human monocytes were assayed under conditions of no stimulation; with human serum albumin immune complex stimulation; with stimulation and a low concentration of a BTK inhibitor with similar characteristics to fenebrutinib; or with stimulation and a high concentration of the BTK inhibitor. […] Genes annotated with cytokine activity were selected. The color bar represents normalized gene expression.

Regarding `C[C@H]1CN(C2COC2)CCN1c1ccc(Nc2cc(-c3ccnc(N4CCn5c(cc6c5CC(C)(C)C6)C4=O)c3CO)cn(C)c2=O)nc1` [fenebrutinib, (S)-2-(3′-(hydroxymethyl)-1-methyl-5-((5-(2-methyl-4-(oxetan-3-yl)piperazin-1-yl)pyridin-2-yl)amino)-6-oxo-1,6-dihydro-[3,4′-bipyridin]-2′-yl)-7,7-dimethyl-2,3,4,6,7,8-hexahydro-1H-cyclopenta[4,5]pyrrolo[1,2-a]pyrazin-1-one], in the assay with ESR (Cohort 1, 200 mg BID, Week 12), the “ESR, % of BL ESR” value came to 63%. The ESR levels entry is reported as “reduced ESR levels” with ESR (Cohort 1, Weeks 2, 4 and 8); “reduced ESR levels” with ESR (Cohort 2, Week 8 and Week 12). Further, the “IgG anti-FcERI autoantibodies” value in assay [1] is listed as “significant reduction”. Besides, the “IL-6 reduction relative to placebo” value with IL-6 (Cohort 1, by week 12) is “not observed”. The “IL-6 levels relative to placebo” value in the assay with IL-6 (cohort 2, 200 mg twice daily, by week 12) is recorded as −50%.

These data come from US12544372B2, “Methods of treating rheumatoid arthritis, chronic spontaneous urticaria, and systemic lupus erythematosis using an inhibitor of Bruton's tyrosine kinase” (Genentech, Inc., priority 2019, dated 2026).
